In US20200087258A1, “INHIBITOR OF CITRATE TRANSPORTER AND THEIR USE IN THERAPY” (Eternygen GmbH, priority 2017, published 2020):

Legend:
INDY [1] = molecular target: T1, INDY (Homo sapiens, UniProt Q86YT5); test: Fatty acid synthesis (FAS) assay from 14C-citrate in HepG2 cells; type: cell-based; conditions: 14C-citrate into fatty acids
Procedure: To test the functional activity of selected compounds and to bridge between the in vitro assay for citrate uptake to the physiological relevant lipid accumulation in liver cells a further functional cell assay was performed. This assay measured the effect of selected compounds on the citrate mediated fatty acid synthesis in hepatocytes.
Fatty acid synthesis (FAS) assay in HepG2: The principle of the assay is to measure the generation of ^14C-labelled fatty acids after uptake of ^14C labelled citrate into HepG2 cells. HepG2 cells were seeded into white clear-bottom 96-well plates (50,000/well) coated with collagen and incubated at 37° C. for 16-24 hours. After that plates were washed once with 100 μl PBS (+CaCl2+MgCl2) and 40 μl assay medium ([…] containing 11 mM glucose, 10 mM HEPES and 1 nM Insulin) per well was added. Test substances in assay medium were added ([…], 0.5% DMSO) and incubated for 20 min. After that 10 μl assay medium containing ^14C-citrate (final concentration 50 nM) and PrestoBlue reagent (1× final concentration; Life Technologies) were added and incubated for 60 min (37° C., 5% CO2). Cell viability was measured (Safire microplate reader, ex: 560/em: 590) and plates were incubated for another 30 min. Medium was removed by inverting the plate and cells were washed once with 100 μl ice-cold PBS. Cells were lysed with 50 μl lysis buffer (100 mM NaOH, 0.1% Triton X-100) and plate was sealed with Tape Pads and vortexed. For the saponification reaction plates were incubated for 16-24 hours at 80° C. Seals were removed and 200 μl […] was added for neutralisation of the pH. 150 μl from each well was transferred into the corresponding wells of a 96-well CytoStarT plate (Perkin Elmer) and sealed with TopSeal A (Perkin Elmer). Plates were incubated for 4 h at 70° C. and for 1 h at room temperature in the dark. Signal of ^14C radioactivity was measured (TopCount NXT scintillation counter, 1 min/well). As a positive control 5 mM citrate or 40 μM C75 (Sigma, C5490) was applied.

INDY [2] = molecular target: T1, INDY; test: 14C-citrate uptake in HepG2 cells endogenously expressing INDY (NaCT); type: cell-based; conditions: endogenous INDY
How it was run: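 HepG2 cells, which express INDY endogenously, were preincubated with compound for 5 min at 37 °C in pH 6.5 Na+ citrate uptake buffer. 14C-citrate ([…]) was then added for 90 min at 37 °C. After washing and NaOH lysis, uptake was measured by scintillation counting, with 5 mM citrate as positive control.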

T1 sequence (Q86YT5 whole entry): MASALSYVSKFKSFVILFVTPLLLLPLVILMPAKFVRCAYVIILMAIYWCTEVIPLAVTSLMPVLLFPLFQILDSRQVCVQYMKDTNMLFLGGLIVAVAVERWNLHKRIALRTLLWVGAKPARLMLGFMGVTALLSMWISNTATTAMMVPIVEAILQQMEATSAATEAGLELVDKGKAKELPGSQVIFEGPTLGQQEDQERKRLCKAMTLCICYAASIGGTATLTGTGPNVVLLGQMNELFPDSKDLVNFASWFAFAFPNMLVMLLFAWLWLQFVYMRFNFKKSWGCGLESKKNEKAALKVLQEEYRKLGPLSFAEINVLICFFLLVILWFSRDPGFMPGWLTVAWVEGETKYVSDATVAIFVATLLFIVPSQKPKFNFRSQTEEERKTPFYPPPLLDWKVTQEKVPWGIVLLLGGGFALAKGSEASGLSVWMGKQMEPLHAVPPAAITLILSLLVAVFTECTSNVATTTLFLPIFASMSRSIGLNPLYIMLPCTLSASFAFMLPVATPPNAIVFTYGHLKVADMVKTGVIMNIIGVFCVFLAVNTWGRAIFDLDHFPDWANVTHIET

SMILES | IC50 (INDY [1]) | IC50 (INDY [2])
O=C(NCc1ccccc1F)C1CCN(S(=O)(=O)/C=C/c2ccccc2)CC1 [Example 5] | 1.3 µM | 2 µM
CC(C)(C)c1ccc(S(=O)(=O)N2CCC(C(=O)NCc3ccccc3F)CC2)cc1 [Example 12, 1-(4-tert-butylbenzenesulfonyl)-N-[(2-fluorophenyl)methyl]piperidine-4-carboxamide] | 0.6 µM | 1 µM
O=C(NCc1ccccc1F)C1CCN(S(=O)(=O)c2ccc(C(F)(F)F)cc2)CC1 [Example 25, N-[(2-fluorophenyl)methyl]-1-[4-(trifluoromethyl)benzenesulfonyl]piperidine-4-carboxamide] | 0.4 µM | 0.3 µM
O=C(NCc1ccccc1F)C1CCN(S(=O)(=O)c2cc(Cl)cc(Cl)c2)CC1 [Example 44, 1-(3,5-dichlorobenzenesulfonyl)-N-[(2-fluorophenyl)methyl]piperidine-4-carboxamide] | 0.03 µM | 0.1 µM
COc1ccccc1CNC(=O)C1CN(S(=O)(=O)c2ccc(C(C)(C)C)cc2)C1 [Example 50, 1-(4-tert-butylbenzenesulfonyl)-N-[(2-methoxyphenyl)methyl]azetidine-3-carboxamide] | 6.2 µM | 7 µM
O=C(NCc1ccccn1)C1CCN(S(=O)(=O)c2cc(Cl)cc(Cl)c2)CC1 [Example 55, 1-(3,5-dichlorobenzenesulfonyl)-N-[(pyridin-2-yl)methyl]piperidine-4-carboxamide] | 0.6 µM | 0.4 µM
O=C(NCc1ccccn1)C1CCN(S(=O)(=O)c2ccc(C(F)(F)F)cc2)CC1 [Example 57, N-[(pyridin-2-yl)methyl]-1-[4-(trifluoromethyl)benzenesulfonyl]piperidine-4-carboxamide] | 2.5 µM | 2.5 µM
O=C(NCc1ccccn1)C1CCN(S(=O)(=O)c2ccc(S(F)(F)(F)(F)F)cc2)CC1 [Example 86, 1-[4-(pentafluoro-lambda6-sulfanyl)benzenesulfonyl]-N-[(pyridin-2-yl)methyl]pipendine-4-carboxamide] | 0.4 µM | 0.4 µM
O=C(NCc1ccccc1CO)C1CCN(S(=O)(=O)c2cc(Cl)cc(Cl)c2)CC1 [Example 87, 1-(3,5-dichlorobenzenesulfonyl)-N-{[2-(hydroxymethyl)phenyl]methyl}piperidine-4-carboxamide] | 0.6 µM | 0.2 µM
O=C(NCc1ccccn1)C1CCN(S(=O)(=O)c2cc(Cl)cc(C3CC3)c2)CC1 [Example 101, 1-(3-chloro-5-cyclopropylbenzenesulfonyl)-N-[(pyridin-2-yl)methyl]piperidine-4-carboxamide] | 0.2 µM | 0.1 µM
